Laboratory results as given in patent US20240317792A1, “CYCLIC DINUCLEOTIDE METAL COMPOUND, AND PREPARATION AND APPLICATION THEREOF” (HANGZHOU XINGAO BIOTECHNOLOGY CO., LTD., priority 2022, published 2024).

How the values were obtained:
[1] = tested on: mouse breast cancer cell line 4T1; assay: Subcutaneously transplanted 4T1 tumor growth inhibition; assay type: in vivo, BALB/c ordinary mice; conditions: 4T1 in BALB/c mice; 10 mg/kg intraperitoneal once every 2 days for 20 days
Source text: Experimental animals: BALB/c ordinary mice and C57BL/6 ordinary mice, male, weighing 20-22 grams, 7-8 weeks old, purchased from Shanghai SLAC Laboratory Animal Co. Ltd.
Tumour cell line: mouse colorectal cancer cell line CT26 and mouse breast cancer cell line 4T1, both purchased from Chinese Academy of Sciences Cell Bank.
Establishment and intervention of tumor model mice: cells were subjected to culture and subculture, collected in a logarithmic phase and prepared as 1.0×10^7/mL of cell suspension. 0.2 mL of the cell suspension was injected armpits of forelegs of the mice (with a cell number of 2.0×10^6), and tumor transplantation was successful in about 7 days. Mice with successful tumor transplantation were randomly divided into 7 groups (10 mice in each group). The 7 groups were listed as follows: A: negative control group (injection with normal saline); B: positive control cGAMP group (10 mg/kg of injection); C: [Li2(cGAMP)] group (10 mg/kg of injection); D: [Mg(cGAMP)] group (10 mg/kg of injection); E: [Zn(cGAMP)] group (10 mg/kg of injection); F: [Mn(cGAMP)] group (10 mg/kg of injection); and G: [Fe(cGAMP)] group (10 mg/kg of injection). The mice with successful tumor transplantation were subjected to administration by intraperitoneal injection with a volume of 200 μL per mice once every 2 days for 20 days. After 20 days, the mice with successful tumor transplantation were killed, and the tumor were weighed. A formula of inhibitory rate of tumor was as represented as inhibitory rate of tumor=[1−average tumor weight of experimental group/average tumor weight of the negative control group]×100%.
According to the establishment of tumor model mice, the mouse colorectal cancer cell line CT26 was cultured and transplanted to the BALB/c ordinary mice, and the mouse breast cancer cell line 4T1 was cultured and transplanted to the BALB/c ordinary mice.
Statistical analysis: data was expressed as mean±standard deviation and processed by the SPSS10.0 software. One-way ANOVA was used to detect and compare significance of tumor weights in each group.

[2] = tested on: APP/PSI transgenic AD model mice; assay: Morris water maze spatial probe test, cognitive ability of AD model mice; assay type: in vivo; conditions: 10 mg/kg intraperitoneal injection once every 2 days for 60 days
Source text: Experimental materials, purchased from Shanghai Model Organisms Center Inc, were APP/PSI transgenic AD model mice, aged 4 months old and weighing 24-26 g. The AD model mice were randomly divided into 7 groups (10 mice in each group). The 7 groups were listed as follows: A: AD model group, as a negative control group (administration of normal saline); B: cGAMP group, as a positive control group (administration of cyclic dinucleotide); C: [Li2(cGAMP)] group (administration of lithium cyclic dinucleotide prepared in Example 1); D: [Mg(cGAMP)] group (administration of magnesium cyclic dinucleotide prepared in Example 2); E: [Zn(cGAMP)] group (administration of zinc cyclic dinucleotide prepared in Example 5); F: [Mn(cGAMP)] group (administration of manganese cyclic dinucleotide prepared in Example 3); G: [Fe(cGAMP)] group (administration of ferrous cyclic dinucleotide prepared in Example 4). The administration in groups C-G was performed as follows. The powdered cyclic dinucleotide metal compounds were prepared into solutions of required concentration with normal saline, respectively. The administration dosage was 10 mg/kg, and the administration was performed via intraperitoneal injection once every 2 days for 60 consecutive days.
The Morris water maze test was performed in a round pool, 1 m in diameter, 50 cm high and 30 cm deep with a white bottom of the pool. Water temperature of the Morris water maze was 23±2° C. Four equidistant points, N, E, S and W, were marked on a pool wall as four starting points for tests. The pool was divided into four quadrants, and a platform, which was equidistant from the pool wall and a center of the pool, was placed in the third quadrant. The platform was immersed under water at a depth of 1 cm, so that the platform was not visible. A lot of reference clues (the reference clues were triangles, quadrangles, circles, and diamonds with different colors placed in each quadrant) were pasted around the pool and kept constant for the AD model mice to locate the platform.
A place navigation test was performed for 6 days, and the AD model mice were subjected to training 4 times per day at fixed time spans. At the beginning of the training, the platform was placed in the […]. An AD model mouse was placed into the water facing the pool wall at any one of the four starting points. A record system was used to record time and a swimming path that the AD model mouse found the platform. The AD model mouse was placed into the water at different four starting points (in different quadrants) in the 4-time-training. The AD model mouse found the platform and rested on the platform for 10 seconds followed by next test. Or if the AD model mouse could not find the platform within 90 seconds (a latency was recorded as 90 seconds), the AD model mouse was guided to the platform by an experimenter and rested for 10 seconds followed by next test.
24 h after the place navigation test, the platform was removed. Then the AD model mouse was placed into the water in the third quadrant, the swimming path in 180 s was recorded. Remain time and a number of the AD model mouse crossing through a location of the platform of the AD model mouse in a target quadrant (the third quadrant) were recorded to observe the spatial localization ability of the AD model mouse. SPSS10.0 software was used to process, and one-way analysis of variance (ANOVA) was adopted to compare significance of difference between the 7 groups.

Row | Structure (SMILES) | Average inhibitory rate of tumor [1] [%] | Average tumor weight [1] [g] | Percentage of time of the AD model mice crossing through the platform in the third quadrant [2] [%]
1 | Nc1nc2c(ncn2C2OC3COP(=O)([O-])OC4C(COP(=O)([O-])OC2C3O)OC(n2cnc3c(N)ncnc32)C4O)c(=O)[nH]1.[Fe+2] (stereo not drawn) [[Fe(cGAMP)], ferrous cyclic dinucleotide] | 83.6 | 0.301 ± 0.116 | 0.81 ± 0.23
2 | Nc1nc2c(ncn2[C@@H]2O[C@@H]3COP(=O)([O-])O[C@H]4[C@@H](O)[C@H](n5cnc6c(N)ncnc65)O[C@@H]4COP(=O)([O-])O[C@@H]2[C@@H]3O)c(=O)[nH]1.[Li+].[Li+] [[Li2(cGAMP)], lithium cyclic dinucleotide] | 61.5 | 0.712 ± 0.146 | 0.91 ± 0.18
3 | Nc1nc2c(ncn2[C@@H]2O[C@@H]3COP(=O)([O-])O[C@H]4[C@@H](O)[C@H](n5cnc6c(N)ncnc65)O[C@@H]4COP(=O)([O-])O[C@@H]2[C@@H]3O)c(=O)[nH]1.[Mg+2] [[Mg(cGAMP)], magnesium cyclic dinucleotide] | 63.2 | 0.679 ± 0.183 | 0.78 ± 0.10
4 | Nc1nc2c(ncn2C2OC3COP(=O)([O-])OC4C(COP(=O)([O-])OC2C3O)OC(n2cnc3c(N)ncnc32)C4O)c(=O)[nH]1.[Mn+2] (stereo not drawn) [[Mn(cGAMP)], manganese cyclic dinucleotide] | 84.9 | 0.287 ± 0.116 | 0.83 ± 0.21
5 | Nc1nc2c(ncn2[C@@H]2O[C@@H]3COP(=O)([O-])O[C@H]4[C@@H](O)[C@H](n5cnc6c(N)ncnc65)O[C@@H]4COP(=O)([O-])O[C@@H]2[C@@H]3O)c(=O)[nH]1.[Zn+2] [[Zn(cGAMP)], zinc cyclic dinucleotide] | 89.1 | 0.212 ± 0.135 | 0.86 ± 0.16
6 | Nc1nc2c(ncn2[C@@H]2O[C@@H]3COP(=O)(O)O[C@H]4[C@@H](O)[C@H](n5cnc6c(N)ncnc65)O[C@@H]4COP(=O)(O)O[C@@H]2[C@@H]3O)c(=O)[nH]1 [cGAMP, 2′3′-cGAMP, reference compound] | 58.8 | 0.761 ± 0.157 | 0.62 ± 0.17
